Data: US8759324B2 (priority 2006, dated 2014)
Like-named read-outs stand apart in the source and are kept apart here.

Assays:
[1] = in vivo, iv; cited from earlier work
[2] = when carboxylates are protonated; cited from earlier work
[3] = Precipitation of anionic porphyrins at acidic pH; assay type: physicochemical; details: pH 5.5, ~50% of carboxylate groups protonated
[4] = Stability of metalloporphyrins to oxidative degradation (bleaching), spectrophotometric; details: for remaining fraction of metalloporphyrin: after 6 hours, in the presence of cyclophosphamide, pH 7.4, 10 μM porphyrin; for remaining fraction of metalloporphyrin / stability to oxidative degradation / bleaching (in words): aerobic; for stability to oxidative degradation / bleaching (in words): pH 7.4, ascorbic acid
[5] = cited from earlier work
[6] = Electrochemistry: metal-centered redox potential (voltammetry); assay type: physicochemical; details: for E1/2 (H2O)M^IIIP/(H2O)M^IIP: 0.1M NaCl and 0.01 M HCl, errors ±3 mV
Method: The electrochemistry was done as previously described on CH Instruments 600 Voltammetric Analyzer. The metal-centered redox potentials of aquametalloporhyrins were measured in 0.1 M NaCl and 0.01 M HCl. […] Thus, their voltammograms were obtained in 0.1 M NaCl, 0.1 M 1-methylimidazole, 0.05 M phosphate buffer, pH 7.8. Scan rates were 0.1 V/s. The potentials were standardized against MnTE-2-PyP^5+ and are given in Table 1, in mV versus normal hydrogen electrode, NHE [42].

[7] = cited from earlier work; remark: listed apart in the source
[8] = pH 7.4; for remaining fraction of metalloporphyrin: buffer, 6 h
[9] = 0.1 M NaCl, 0.1 M 1-methylimidazole, 0.05 M phosphate buffer, pH 7.8, scan rate 0.1 V/s
[10] = footnote b: ref 42, pH 7.8, 0.05 M phosphate buffer, 0.1M NaCl, 0.5 mM porphyrin
[11] = footnote a: estimated from existing potentials of difluoro- and dichloro analogues [42] and those obtained herein

O=P1(N(CCCl)CCCl)NCCCO1 (stereo not drawn) [CP, cyclophosphamide]
CP hydroxylated to 4-OHCP in plasma [1]: around 2.4%
peak CP levels in plasma [1]: 27.58 μg/mL μM

C=CC1=C(C)c2cc3[n-]c(cc4[n-]c(cc5nc(cc1n2)C(C)=C5C=C)c(C)c4CCC(=O)O)c(CCC(=O)O)c3C.[Cl-].[Fe+3] [FePP-IX^−, Fe(III) protoporphyrin IX]
precipitation under acidic conditions [2]: precipitate under acidic conditions
precipitation at pH 5.5 [3]: precipitate out of the solutions
remaining fraction of metalloporphyrin ([4]; 2 mM ascorbic acid): 71%
stability to oxidative degradation / bleaching (in words) [4]: very resistant to bleaching
pKa of carboxylate groups [5]: ~5
E1/2 (1-MeIm)2M^IIIP/(1-MeIm)2M^IIP [6, 9]: 112 mV vs NHE

C[n+]1ccccc1-c1c2nc(c(-c3cccc[n+]3C)c3ccc([n-]3)c(-c3cccc[n+]3C)c3nc(c(-c4cccc[n+]4C)c4ccc1[n-]4)C=C3)C=C2.[Fe+3] [FeTM-2-PyP^5+, Fe(III) tetrakis(N-methylpyridinium-2-yl)porphyrin]
change of absorbance at 417.5 nm (porphyrin degradation) ([4]; 9 μM porphyrin, 2 mM ascorbic acid, +/−50 μM H2O2, +/−50 mM mannitol, PBS pH 7.4, 25° C., data not shown): decreased slowly
remaining fraction of metalloporphyrin ([4]; 2 mM ascorbic acid): 41%
E1/2 (1-MeIm)2M^IIIP/(1-MeIm)2M^IIP [7, 10]: +432^b mV vs NHE
E1/2 (H2O)M^IIIP/(H2O)M^IIP [7, 10]: +355^b mV vs NHE
E1/2 (OH)M^IIIP/(H2O)M^IIP [7, 10]: +212^b mV vs NHE

C[n+]1ccccc1-c1c2nc(c(-c3cccc[n+]3C)c3ccc([n-]3)c(-c3cccc[n+]3C)c3nc(c(-c4cccc[n+]4C)c4ccc1[n-]4)C=C3)C=C2.[Mn+3] [MnTM-2-PyP^5+, Mn(III) tetrakis(N-methylpyridinium-2-yl)porphyrin]
remaining fraction of metalloporphyrin ([4]; 2 mM ascorbic acid): 91%
E1/2 (OH)M^IIIP/(H2O)M^IIP [7, 10]: +128^b mV vs NHE

C[n+]1cccc(-c2c3nc(c(-c4ccc[n+](C)c4)c4ccc([n-]4)c(-c4ccc[n+](C)c4)c4nc(c(-c5ccc[n+](C)c5)c5ccc2[n-]5)C=C4)C=C3)c1.[Mn+3] [MnTM-3-PyP^5+, Mn(III) tetrakis(N-methylpyridinium-3-yl)porphyrin]
remaining fraction of metalloporphyrin ([4]; 2 mM ascorbic acid): 94%
E1/2 (OH)M^IIIP/(H2O)M^IIP ([7]; footnote c: ref 62, pH 11 where only 33% of (OH)MnTM-3-PyP^4+ exists): +42^c mV vs NHE

Fe(III) meso tetrakis(2,6-dichloro-3-sulfonatophenyl)porphyrin [FeT(2,6-Cl2-3-SO3P)P^3−]
remaining fraction of metalloporphyrin [8]: 23%
stability to oxidative degradation / bleaching (in words) [8]: least stable
E1/2 (1-MeIm)2M^IIIP/(1-MeIm)2M^IIP [7, 10]: +134^b mV vs NHE
E1/2 (OH)M^IIIP/(H2O)M^IIP [7, 10]: +94^b mV vs NHE
E1/2 (H2O)M^IIIP/(H2O)M^IIP ([6]; scan rate 0.1 V/s): +144^ mV vs NHE

Fe(III) meso tetrakis(2,6-difluoro-3-sulfonatophenyl)porphyrin [FeT(2,6-F2-3-SO3P)P^3−]
remaining fraction of metalloporphyrin [8]: 19%
stability to oxidative degradation / bleaching (in words) [8]: least stable
4-OHCP produced (pH 5.5): 46.11 µM
cyclophosphamide hydroxylated relative to 10 μM porphyrin (pH 5.5): ~5 fold
4-OHCP formed (pH 7.4): 15.62 µM
E1/2 (H2O)M^IIIP/(H2O)M^IIP ([6]; scan rate 0.1 V/s): +124^ mV vs NHE
E1/2 (1-MeIm)2M^IIIP/(1-MeIm)2M^IIP [6, 11]: +114^a mV vs NHE
E1/2 (OH)M^IIIP/(H2O)M^IIP [6, 11]: +74^a mV vs NHE

Fe(III) meso tetrakis(4-carboxylatophenyl)porphyrin [FeTBAP^3−]
precipitation under acidic conditions [2]: precipitate under acidic conditions
precipitation at pH 5.5 [3]: precipitate out of the solutions
remaining fraction of metalloporphyrin ([4]; 2 mM ascorbic acid): 24%
stability to oxidative degradation / bleaching (in words) [4]: more prone to destruction
pKa of carboxylate groups [5]: ~5
E1/2 (1-MeIm)2M^IIIP/(1-MeIm)2M^IIP [6, 9]: +22 ^ mV vs NHE
